Test results as given in the supplement of paper PMC10627819.

Assays:
[1] = test system: S. pneumoniae D39V; assay: Bliss interaction score (quartile over a dose matrix) (fitness difference); higher = more antagonism (negative = synergy)
How it was run: (§1)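 Fitness was defined as normalised growth: OD595 at the start of stationary phase divided by the plate's robust no-drug mean and capped at 1. Single-drug fitness was inferred from combination measurements. The Bliss score is observed fitness minus the product of the single-drug values, summarised by quartiles across technical, biological and donor/recipient replicates.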

[2] = test system: B. subtilis 168; assay: as above
How it was run: as §1

[3] = test system: S. aureus DSM 20231; assay: as above
How it was run: as §1

[4] = test system: S. aureus Newman; assay: as above
How it was run: as §1

[5] = test system: B. subtilis 168; assay: fitness (endpoint OD595 vs no drug) (fraction); higher = more growth
How it was run: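 Fitness was measured as bacterial growth in 384-well plates inoculated at OD595 0.01 (30 µl, or 55 µl for S. pneumoniae). Media were TSB, LB Lennox or CY, at 37 °C. OD595 was read every 30 min for 14 h and background-subtracted against the first reading. Fitness is OD595 at the transition into stationary phase divided by the robust mean of no-drug control wells, capped at 1.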
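Wherever Bliss interaction score (quartile over a dose matrix) is given: first quartile when negative (synergy) and third quartile when positive (antagonism).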
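Wherever fitness (endpoint OD595 vs no drug) is given: OD595 on entry to stationary phase over no-drug wells; at most 1.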

CC[C@H](C)[C@H](N)C1=N[C@H](C(=O)N[C@@H](CC(C)C)C(=O)N[C@H](CCC(=O)O)C(=O)N[C@H](C(=O)N[C@H]2CCCCNC(=O)[C@H](CC(N)=O)NC(=O)[C@@H](CC(=O)O)NC(=O)[C@H](Cc3cnc[nH]3)NC(=O)[C@@H](Cc3ccccc3)NC(=O)[C@H]([C@@H](C)CC)NC(=O)[C@@H](CCCN)NC2=O)[C@@H](C)CC)CS1 [Bacitracin] + C[C@H]1c2cccc(O)c2C(=O)C2=C(O)[C@]3(O)C(=O)C(C(N)=O)=C(O)[C@@H](N(C)C)[C@@H]3[C@@H](O)[C@@H]21 [Doxycycline]
main component drawn
Details | Bliss interaction score
[1] | 0.0989
[2] | -0.0867
[3] | 0.101
[4] | -0.0186

fitness, [5], main component drawn
Details | first compound 37.5 µg/mL | first compound 75 µg/mL | first compound 150 µg/mL
partner 0.02 µg/mL | 0.844 | 0.81 | –
partner 0.04 µg/mL | 0.716 | 0.664 | 0.48
partner 0.08 µg/mL | 0.476 | 0.218 | 0.0689

CC(=O)NC[C@H]1CN(c2ccc(N3CCOCC3)c(F)c2)C(=O)O1 [Linezolid] + CO[C@@H]1[C@@H](OC(N)=O)[C@@H](O)[C@H](Oc2ccc3c(O)c(NC(=O)c4ccc(O)c(CC=C(C)C)c4)c(=O)oc3c2C)OC1(C)C [Novobiocin]
Details | Bliss interaction score
[1] | -0.123
[2] | 0.046
[3] | 0.0424
[4] | 0.0413

fitness, [5], one replicate
Details | partner 0.05 µg/mL | partner 0.1 µg/mL | partner 0.125 µg/mL | partner 0.2 µg/mL | partner 0.25 µg/mL | partner 0.5 µg/mL
first compound 0.0625 µg/mL | 0.871 | 0.925 | – | 0.885 | – | –
first compound 0.125 µg/mL | – | 0.595 | 0.846 | 0.554 | 0.727 | 0.578
first compound 0.25 µg/mL | – | 0.0625 | 0.349 | 0.0582 | 0.218 | 0.242
first compound 0.5 µg/mL | – | – | 0.069 | – | 0.0496 | 0.0575

fitness, [5]
Details | first compound 0.125 µg/mL | first compound 0.25 µg/mL | first compound 0.5 µg/mL
partner 0.0125 µg/mL | 0.659 | 0.23 | 0.0324
partner 0.025 µg/mL | 0.574 | 0.182 | 0.0304
partner 0.05 µg/mL | 0.597 | 0.0885 | 0.0285

CO[C@@H]1[C@@H](OC(N)=O)[C@@H](O)[C@H](Oc2ccc3c(O)c(NC(=O)c4ccc(O)c(CC=C(C)C)c4)c(=O)oc3c2C)OC1(C)C [Novobiocin] + CC1=C\[C@@H](O)CC(=O)Cc2nc(co2)C(=O)N2CCC=C2C(=O)O[C@H](C(C)C)[C@H](C)/C=C/C(=O)NC\C=C\1 [Virginiamycin M1]
Details | Bliss interaction score
[1] | 0.108
[2] | 0.0734
[3] | 0.0833
[4] | 0.0284

fitness, [5]
Details | first compound 0.0125 µg/mL | first compound 0.025 µg/mL | first compound 0.05 µg/mL
partner 0.0625 µg/mL | 0.925 | 0.987 | 0.97
partner 0.125 µg/mL | 0.942 | 0.954 | 0.948
partner 0.25 µg/mL | 0.922 | 0.997 | 0.937

fitness, [5], one replicate
Details | first compound 0.125 µg/mL | first compound 0.25 µg/mL | first compound 0.5 µg/mL
partner 0.0625 µg/mL | 0.967 | 0.867 | 0.58
partner 0.125 µg/mL | 0.973 | 0.875 | 0.571
partner 0.25 µg/mL | 0.927 | 0.884 | 0.561

CO[C@@H]1[C@@H](OC(N)=O)[C@@H](O)[C@H](Oc2ccc3c(O)c(NC(=O)c4ccc(O)c(CC=C(C)C)c4)c(=O)oc3c2C)OC1(C)C [Novobiocin] + CCN(CC)CCOC(=O)c1ccc(N)cc1 [Procaine]
Details | Bliss interaction score
[1] | -0.109
[2] | 0.0449
[3] | 0.0431
[4] | 0.0326

fitness, [5]
Details | first compound 0.0125 µg/mL | first compound 0.025 µg/mL | first compound 0.05 µg/mL
partner 85.5 µg/mL | 0.915 | 0.973 | 0.863
partner 171 µg/mL | 0.921 | 0.974 | 0.865
partner 342 µg/mL | 0.898 | 0.884 | 0.87

fitness, [5], one replicate
Details | first compound 0.125 µg/mL | first compound 0.25 µg/mL | first compound 0.5 µg/mL
partner 85.5 µg/mL | 0.905 | 0.822 | 0.543
partner 171 µg/mL | 0.856 | 0.821 | 0.562
partner 342 µg/mL | 0.866 | 0.784 | 0.638

CO[C@@H]1[C@@H](OC(N)=O)[C@@H](O)[C@H](Oc2ccc3c(O)c(NC(=O)c4ccc(O)c(CC=C(C)C)c4)c(=O)oc3c2C)OC1(C)C [Novobiocin] + CN1C2=CC=CC=C2N=C3C1=CC=CC3=O [Pyocyanin]
Details | Bliss interaction score
[1] | 0.116
[2] | -0.137
[3] | 0.044
[4] | 0.0744

fitness, [5]
Details | first compound 0.0125 µg/mL | first compound 0.025 µg/mL | first compound 0.05 µg/mL
partner 1.25 µg/mL | 0.881 | 0.916 | 0.929
partner 2.5 µg/mL | 0.847 | 0.827 | 0.858
partner 5 µg/mL | 0.733 | 0.71 | 0.749

fitness, [5], one replicate
Details | first compound 0.125 µg/mL | first compound 0.25 µg/mL | first compound 0.5 µg/mL
partner 1.25 µg/mL | 0.837 | 0.701 | 0.13
partner 2.5 µg/mL | 0.788 | 0.441 | 0.0992
partner 5 µg/mL | 0.454 | 0.229 | 0.164

CO[C@@H]1[C@@H](OC(N)=O)[C@@H](O)[C@H](Oc2ccc3c(O)c(NC(=O)c4ccc(O)c(CC=C(C)C)c4)c(=O)oc3c2C)OC1(C)C [Novobiocin] + CN(C)c1cc(NC(=O)CNC(C)(C)C)c(O)c2c1C[C@H]1C[C@H]3[C@H](N(C)C)C(O)=C(C(N)=O)C(=O)[C@@]3(O)C(O)=C1C2=O [Tigecycline]
Details | Bliss interaction score
[1] | 0.0803
[2] | 0.034
[3] | 0.079
[4] | 0.03

fitness, [5]
Details | first compound 0.0125 µg/mL | first compound 0.025 µg/mL | first compound 0.05 µg/mL
partner 0.039 µg/mL | 0.971 | ≥ 1 | ≥ 1
partner 0.078 µg/mL | 0.952 | 0.986 | 0.977
partner 0.156 µg/mL | 0.937 | 0.964 | 0.947

fitness, [5], one replicate
Details | first compound 0.05 µg/mL | first compound 0.1 µg/mL | first compound 0.125 µg/mL | first compound 0.2 µg/mL | first compound 0.25 µg/mL | first compound 0.5 µg/mL
partner 0.039 µg/mL | – | – | 0.893 | – | 0.888 | 0.501
partner 0.078 µg/mL | – | – | 0.924 | – | 0.818 | 0.508
partner 0.125 µg/mL | ≥ 1 | ≥ 1 | – | ≥ 1 | – | –
partner 0.156 µg/mL | – | – | 0.866 | – | 0.77 | 0.607
partner 0.25 µg/mL | 0.943 | 0.95 | – | ≥ 1 | – | –
partner 0.5 µg/mL | 0.953 | ≥ 1 | – | 0.999 | – | –

CO[C@@H]1[C@@H](OC(N)=O)[C@@H](O)[C@H](Oc2ccc3c(O)c(NC(=O)c4ccc(O)c(CC=C(C)C)c4)c(=O)oc3c2C)OC1(C)C [Novobiocin] + CN(N=O)C(=O)N[C@@H](C=O)[C@@H](O)[C@H](O)[C@H](O)CO [Streptozotocin]
Details | Bliss interaction score
[1] | -0.105
[2] | 0.0669
[3] | 0.0969
[4] | 0.0508

fitness, [5], one replicate
Details | first compound 0.0125 µg/mL | first compound 0.025 µg/mL | first compound 0.05 µg/mL | first compound 0.125 µg/mL | first compound 0.25 µg/mL | first compound 0.5 µg/mL
partner 0.15 µg/mL | 0.914 | ≥ 1 | 0.877 | 0.869 | 0.925 | 0.516
partner 0.3 µg/mL | 0.982 | ≥ 1 | ≥ 1 | 0.858 | 0.839 | 0.516
partner 0.6 µg/mL | 0.993 | ≥ 1 | 0.945 | ≥ 1 | 0.871 | 0.504

CN[C@@H]1[C@H](O[C@H]2[C@H](O[C@H]3[C@H](O)[C@@H](O)[C@H](N=C(N)N)[C@@H](O)[C@@H]3N=C(N)N)O[C@@H](C)[C@]2(O)C=O)O[C@@H](CO)[C@H](O)[C@H]1O [Streptomycin] + Cc1cc(NS(=O)(=O)c2ccc(N)cc2)no1 [Sulfamethoxazol]
Details | Bliss interaction score
[1] | 0.0624
[2] | -0.126
[3] | 0.0929
[4] | 0.0497

CN[C@@H]1[C@H](O[C@H]2[C@H](O[C@H]3[C@H](O)[C@@H](O)[C@H](N=C(N)N)[C@@H](O)[C@@H]3N=C(N)N)O[C@@H](C)[C@]2(O)C=O)O[C@@H](CO)[C@H](O)[C@H]1O [Streptomycin] + Oc1cc(Cl)ccc1Oc1ccc(Cl)cc1Cl [Triclosan]
Details | Bliss interaction score
[1] | 0.0606
[2] | -0.249
[3] | -0.06
[4] | -0.0312
